# What was measured:
# Type in all cases: cell-based
# [1] = system: E. coli strain ATCC 25922; assay: SdFFF elution-profile sensitivity test, protocol of Example 2 / FIG. 4; details: for percentage of variation in the retention factor PΔR: sensitive strain, 4 mg/ml ampicillin vs control, significance threshold 10%
# Protocol: (§1) The results of the antimicrobial resistance analysis are expected starting 18-26 hours after the sample was cultured on agar.
# (§2) The field-flow fractionation device is set according to patent EP1679124. The device comprises an injection system where the sample is taken, the tubing bringing the sample from the injector to the separation channel via a first rotary joint, the separation channel contained in a centrifugation bowl, the rotation of which is ensured by an electric motor itself controlled manually or via a suitable computer device, thus allowing control of the intensity of the multigravitational field, the tubing bringing the separated species from the channel to the detector via the second rotary joint, and finally the detector.
# (§3) Bacterial colonies were incubated in a Mueller-Hinton (MH) culture medium with an inoculum of 0.5 McFarland in the absence or in the presence of antibiotic, for 2 hours at 37° C. and under stirring. The liquid medium MH is the reference medium used for the reference method for determining MIC values, called the dilution method in a liquid medium.
# (§4) After incubation for 2 h, the culture medium was centrifuged and then taken up in a volume of 0.5 ml of PBS.
# (§5) According to the handlings shown in FIG. 5, the calculation of the percentage of variation in the retention factor or PΔR is carried out as follows: ?
# (§6) Example 2: A new analysis protocol was established according to FIG. 4, consistent with the clinical implementation of conventional antibiograms, making it possible to reduce to 26 hours post-sampling/isolating the time for obtaining the test results.
# (§7) Thus, such assays were carried out directly on bacterial suspensions, obtained from colonies of the E. coli strain ATCC 25922 and ATCC 35218 cultured for 16-24 hours on agar medium, and incubated for 2 hours in the presence or in the absence of antibiotic (Ampicillin, FIGS. 5A/B).
# [2] = system: E. coli strain ATCC 35218; assay: as above; details: for percentage of variation in the retention factor PΔR: resistant strain, 4 mg/ml ampicillin vs control, significance threshold 10%
# Protocol: as §1, §2, §3, §4, §5, §6, §7
# E. coli ATCC EC 25922 = assay: minimum inhibitory concentration; details: Escherichia coli, ATCCEC25922; concentration said to correspond to the MIC
# [3] = system: E. coli strain ATCC 25922; assay: SdFFF elution-profile sensitivity test, protocol of Example 1 / FIG. 1; details: significance threshold 10%
# Protocol: The results of the antimicrobial resistance analysis are expected starting 40 hours after the sample was cultured on agar.
# as §2, §3, §4
# Example 1: Results of resistance tests of the E. coli strain ATCC 25922 to various molecules, using SdFFF according to the present invention. […]
# [4] = 4 mg/ml ampicillin, PΔR compared with 10% threshold
smiles,measurement,setting,value
"CC1(C)S[C@@H]2[C@H](NC(=O)[C@H](N)c3ccccc3)C(=O)N2[C@H]1C(=O)O [ampicillin, Ampicillin]",sensitivity/resistance of the strain to the antimicrobial,[1]; [4],sensitive
same,percentage of variation in the retention factor PΔR,[1],12.70%
same,percentage of variation in the retention factor PΔR,[1]; listed as Ampicillin,≈ 13%
same,sensitivity/resistance of the strain to the antimicrobial,[2]; [4],resistant
same,PΔR,[2]; resistant strain incubated with 8 mg/ml ampicillin,≈ 7%
same,percentage of variation in the retention factor PΔR,[2],4.50%
same,percentage of variation in the retention factor PΔR,[2]; listed as Ampicillin,≈ 5%
"CN(C)[C@@H]1C(O)=C(C(N)=O)C(=O)[C@@]2(O)C(O)=C3C(=O)c4c(O)ccc(Cl)c4[C@@](C)(O)[C@H]3C[C@@H]12 [chlortetracycline, Chlortetracycline]",MIC,E. coli ATCC EC 25922,0.03 µg/mL
same,PΔR,[3]; 0.03 µg/ml chlortetracycline vs control,22%
NC[C@H]1O[C@H](O[C@H]2[C@H](O)[C@@H](O[C@H]3O[C@H](CO)[C@@H](O)[C@H](N)[C@H]3O)[C@H](N)C[C@@H]2N)[C@H](O)[C@@H](O)[C@@H]1O [kanamycin],MIC,E. coli ATCC EC 25922,3 µg/mL
same,percentage of variation in the retention factor PΔR,[3]; 3 µg/ml of kanamycin vs control,11.2%
